Values quoted from earlier work as cited in patent US20170106067A1, “COMBINATORIAL IMMUNOTHERAPY FOR PANCREATIC CANCER TREATMENT” (THE JOHNS HOPKINS UNIVERSITY, priority 2014, published 2017).

Tested on: metastatic PDA
Conditions: Le et al., 2013

Substance: ipilimumab
- clinical anti tumor activity in metastatic PDA patients: failed to demonstrate durable and effective anti tumor activity
